Data from patent publication US8168647B2, “Vinblastine derivatives, their preparation, use and pharmaceutical compositions comprising the said derivatives” (Shanghai Institute of Materia Medica Chinese Academy of …, priority 2007, dated 2012).
Structures can show the parent of a compound that is named as a salt. Where two headings read alike, the source gives them in different places. Marks after values point to notes of the source that are not given here.

Tests used:
sarcoma 180 = experiment: In vivo antitumor assay on Sarcoma 180 (S180) in mice; settings: for inhibition in vivo at 10 mg/kg / inhibition in vivo at 40 mg/kg / inhibition in vivo at 20 mg/kg: Mus musculus, Sarcoma-180, iv; for inhibition in vivo at 40 mg/kg: read-out: Inhibition rate %, 40 mg/kg, iv, d 1, 4
[1] = tested on: human non-small cell lung cancer (A549) xenografts; settings: mouse, in vivo
[2] = tested on: human non-small cell lung cancer (A549) xenografts; experiment: Nude mice models bearing human non-small cell lung cancer (A549) xenografts; settings: for toxicity in the mice (in words) / efficacy against A549 xenografts (in words): iv
[3] = tested on: human non-small cell lung cancer cell line A-549; experiment: In vitro cytotoxicity assay, Sulforhodamine B (SRB), A-549; assay type: cell-based
[4] = tested on: human cervical carcinoma cell line Hela; experiment: In vitro cytotoxicity assay, Sulforhodamine B (SRB), Hela; assay type: cell-based
[5] = depending on its concentration and action time; read-out: IC50, in vitro activity; cited from earlier work
[6] = BM48 tartrate once at d0, vinorelbine tartrate twice at d0 and d4
[7] = read-out: Inhibition rate %, 10 mg/kg, iv, d 1, 4
[8] = read-out: Inhibition rate %, 20 mg/kg, iv d 1
[9] = 1.5 mg/kg iv once at d0, dn: 12 days after the first administration
[10] = 3 mg/kg iv once at d0, dn: 12 days after the first administration
[11] = 6 mg/kg iv once at d0, dn: 12 days after the first administration
[12] = Homo sapiens, A549, 72 h, read-out: A549 (IC50, nM)
[13] = Homo sapiens, HeLa, 72 h, read-out: Hela (IC50, nM)
[14] = read-out: Inhibition rate %, 20 mg/kg, iv, d 1, 4

| SMILES | Average weight (g) At sacrifice (sarcoma 180; 10 mg/kg, iv, d 1, 4) | Tumor Weight (g) X ± SD (sarcoma 180; 10 mg/kg, iv, d 1, 4) | Average weight (g) At sacrifice (sarcoma 180; 40 mg/kg, iv, d 1, 4) | Tumor Weight (g) X ± SD (sarcoma 180; 40 mg/kg, iv, d 1, 4) | inhibition in vivo at 40 mg/kg (sarcoma 180) | Average weight (g) At sacrifice (sarcoma 180; 20 mg/kg, iv d 1) | Tumor Weight (g) X ± SD (sarcoma 180; 20 mg/kg, iv d 1) | inhibition in vivo at 10 mg/kg (sarcoma 180; [7]) | inhibition in vivo at 20 mg/kg (sarcoma 180; [8]) | cell-based efficacy, inhibition of tumor cell proliferation (in words) [3] | IC50 [3, 12] | IC50 [4, 13] | further results |
| --- | --- | --- | --- | --- | --- | --- | --- | --- | --- | --- | --- | --- | --- |
| CCC1=C[C@@H]2CN(C1)Cc1c([nH]c3ccccc13)[C@@](C(=O)OC)(c1cc3c(cc1OC)N(C)[C@H]1[C@@](O)(C(=O)OC)[C@H](OC(C)=O)[C@]4(CC)C=CCN5CC[C@]31[C@@H]54)C2 [Vinorelbine tartrate, vinorelbine tartrate, reference compound] | 27.5 g | 0.60 ± 0.23 g |  |  |  |  |  |  |  |  |  |  | inhibition in vivo at 10 mg/kg (sarcoma 180; read-out: Inhibition rate %): 62.5%; Body weight (g) dn [1]: 16.4 g; toxicity in the mice (in words) [2, 6]: higher toxicity; RTV x ± SD ([2]; mouse, in vivo): 2.66 ± 1.18; T/C (%) ([2]; mouse, in vivo): 24.1* %; TV (mm^3) x ± SD dn ([2]; mouse, in vivo): 550 ± 206 mm^3; efficacy against A549 xenografts (in words) ([2]; mouse, in vivo): a little better efficacy than BM48 tartrate; IC50 ([3]; Homo sapiens, A549, SRB assay, 72 hours incubation, ditartrate of all compounds used, read-out: A549 (IC50)): 23.1 nM; IC50 ([4]; Homo sapiens, HeLa, SRB assay, 72 hours incubation, ditartrate of all compounds used, read-out: Hela (IC50)): 9.1 nM |
| CC[C@]12C=CCN3CC[C@@]4(c5cc([C@@]6(C(=O)OC)C[C@@H]7C[C@@H](C(C)(F)F)CN(Cc8c6[nH]c6ccccc86)C7)c(OC)cc5N(C)[C@H]4[C@@](O)(C(=O)OC)[C@@H]1OC(C)=O)[C@@H]32 [Vinflunine, reference compound] |  |  | 28.4 g | 0.44 ± 0.13 g | 72.5% |  |  |  |  |  |  |  | IC50 [5]: 60 to 300 nM |
| CCC1=C[C@@H]2CN(CCc3c([nH]c4ccccc34)[C@@](C(=O)OC)(c3cc4c(cc3OC)N(C)[C@H]3C(O)(CNC(=O)OC)[C@H](OC(C)=O)[C@]5(CC)C=CCN6CC[C@]43[C@@H]65)C2)C1 (some centres unmarked) [BM48] | 27.1 g | 0.85 ± 0.11 g |  |  |  | 24.2 g | 0.35 ± 0.03 g | 46.9% | 78.1% | excellent cell-based efficacy | 75.3 nM | 34.8 nM | T/C (%) ([2]; 1.5 mg/kg iv once at d0): 74.0%; Body weight (g) dn [2, 9]: 21.3 g; TV (mm^3) x ± SD dn [2, 9]: 2080 ± 542 mm^3; RTV x ± SD ([2]; 1.5 mg/kg iv once at d0, relative tumor volume): 8.18 ± 2.20; T/C (%) ([2]; 3 mg/kg iv once at d0): 62.9* %; Body weight (g) dn [2, 10]: 20.4 g; TV (mm^3) x ± SD dn [2, 10]: 1545 ± 410 mm^3; RTV x ± SD ([2]; 3 mg/kg iv once at d0, relative tumor volume): 6.96 ± 1.79; T/C (%) ([2]; 6 mg/kg iv once at d0): 31.5* %; Body weight (g) dn [2, 11]: 18.8 g; TV (mm^3) x ± SD dn [2, 11]: 808 ± 336 mm^3; RTV x ± SD ([2]; 6 mg/kg iv once at d0, relative tumor volume): 3.48 ± 1.83; efficacy against A549 xenografts (in words) [2, 6]: significantly inhibited; toxicity in the mice (in words) [2, 6]: appeared to show toxicity after the administration of BM48, but could recover well later; efficacy against A549 xenografts (in words) ([2]; BM48 tartrate once at d0, vinorelbine tartrate twice at d0 and d4, listed as BM48 tartrate): comparable to or even a little better than vinorelbine tartrate |
| CC[C@]12C=CCN3CC[C@@]4(c5cc([C@@]6(C(=O)OC)C[C@@H]7C[C@@H](C(C)(F)F)CN(CCc8c6[nH]c6ccccc86)C7)c(OC)cc5N(C)[C@H]4C(O)(CNC(=O)OCC(C)C)[C@@H]1OC(C)=O)[C@@H]32 (some centres unmarked) [BM80] |  |  | 32.5 g | 1.58 ± 0.12 g | 1.2% |  |  |  |  |  | > 1000 nM | > 1000 nM | Average weight (g) At sacrifice (sarcoma 180; 20 mg/kg, iv, d 1, 4): 34.5 g; Tumor Weight (g) X ± SD (sarcoma 180; 20 mg/kg, iv, d 1, 4): 1.55 ± 0.34 g; inhibition in vivo at 20 mg/kg (sarcoma 180; [14]): 3.1% |
| CC[C@]12C=CCN3CC[C@@]4(c5cc([C@@]6(C(=O)OC)C[C@@H]7C[C@@H](C(C)(F)F)CN(CCc8c6[nH]c6ccccc86)C7)c(OC)cc5N(C)[C@H]4C(O)(COC(=O)C4CC4)[C@@H]1OC(C)=O)[C@@H]32 (some centres unmarked) [BM76] |  |  | 31.8 g | 1.25 ± 0.45 g | 21.9% |  |  |  |  |  | > 1000 nM | > 1000 nM | Average weight (g) At sacrifice (sarcoma 180; 20 mg/kg, iv, d 1, 4): 31.4 g; Tumor Weight (g) X ± SD (sarcoma 180; 20 mg/kg, iv, d 1, 4): 1.20 ± 0.09 g; inhibition in vivo at 20 mg/kg (sarcoma 180; [14]): 25% |
| CCC1=C[C@@H]2CN(CCc3c([nH]c4ccccc34)[C@@](C(=O)OC)(c3cc4c(cc3OC)N(C)[C@H]3C(O)(CNC(=O)C5CC5)[C@H](OC(C)=O)[C@]5(CC)C=CCN6CC[C@]43[C@@H]65)C2)C1 (some centres unmarked) [BM33] | 22.2 g | 0.30 ± 0.05 g |  |  |  | 23.9 g | 0.18 ± 0.02 g | 81.3% | 88.8% | excellent cell-based efficacy | 26.4 nM | 17 nM |  |
| CCC1=C[C@@H]2CN(CCc3c([nH]c4ccccc34)[C@@](C(=O)OC)(c3cc4c(cc3OC)N(C)[C@H]3C(O)(CNC(=O)OCC5CC5)[C@H](OC(C)=O)[C@]5(CC)C=CCN6CC[C@]43[C@@H]65)C2)C1 (some centres unmarked) [BM57] | 25.2 g | 0.26 ± 0.07 g |  |  |  |  |  | 83.8% |  | excellent cell-based efficacy | 60.6 nM | 13.2 nM |  |
| CCC(=O)NCC1(O)[C@H](OC(C)=O)[C@]2(CC)C=CCN3CC[C@@]4(c5cc([C@@]6(C(=O)OC)C[C@@H]7C=C(CC)CN(CCc8c6[nH]c6ccccc86)C7)c(OC)cc5N(C)[C@@H]14)[C@@H]32 (some centres unmarked) [BM27] | 21.4 g | 0.25 ± 0.06 g |  |  |  | 20.7 g | 0.16 ± 0.03 g | 84.4% | 90% | excellent cell-based efficacy | 42.9 nM | 13.4 nM |  |
| CCC1=C[C@@H]2CN(CCc3c([nH]c4ccccc34)[C@@](C(=O)OC)(c3cc4c(cc3OC)N(C)[C@H]3[C@@](O)(C(=O)OC)[C@H](OC(C)=O)[C@]5(CC)C=CCN6CC[C@]43[C@@H]65)C2)C1 [Anhydrovinblastine tartrate, anhydrovinblastine tartrate, reference compound] | 27.9 g | 0.49 ± 0.10 g |  |  |  |  |  |  |  |  |  |  | Inhibition rate % (sarcoma 180; 10 mg/kg, iv, d 1, 4): 69.4* %; IC50 ([3]; SRB assay, 72 hours incubation, ditartrate of all compounds used, read-out: A549 (IC50)): 60.2 nM; IC50 ([4]; SRB assay, 72 hours incubation, ditartrate of all compounds used, read-out: Hela (IC50)): 40.2 nM |
| CCC1=C[C@@H]2CN(CCc3c([nH]c4ccccc34)[C@@](C(=O)OC)(c3cc4c(cc3OC)N(C)[C@H]3C(O)(CNC(=O)c5ccc6c(c5)OCO6)[C@H](OC(C)=O)[C@]5(CC)C=CCN6CC[C@]43C65)C2)C1 (some centres unmarked) [BM47] | 25.3 g | 0.67 ± 0.07 g |  |  |  | 23.3 g | 0.54 ± 0.17 g | 58.1% | 66.3% | excellent cell-based efficacy | 14.4 nM | 19 nM |  |
| CC[C@]12C=CCN3CC[C@@]4(c5cc([C@@]6(C(=O)OC)C[C@@H]7C[C@@H](C(C)(F)F)CN(CCc8c6[nH]c6ccccc86)C7)c(OC)cc5N(C)[C@H]4C(O)(COC(C)=O)[C@@H]1OC(C)=O)[C@@H]32 (some centres unmarked) [BM75] |  |  | 33.3 g | 1.85 ± 0.32 g | 0% |  |  |  |  |  | > 1000 nM | > 1000 nM | Average weight (g) At sacrifice (sarcoma 180; 20 mg/kg, iv, d 1, 4): 30.9 g; Tumor Weight (g) X ± SD (sarcoma 180; 20 mg/kg, iv, d 1, 4): 1.53 ± 0.56 g; inhibition in vivo at 20 mg/kg (sarcoma 180; [14]): 4.4% |
